Measured values published in patent US9511074B2, “Methods of treating disorders associated with protein polymerization” (UNIVERSITY OF PITTSBURGH—OF THE COMMONWEALTH SYSTEM OF …, priority 2009, dated 2016).

Tested on: LC3
Experiment: LC3 conversion in the HTO/Z cell line by immunoblot
Format: cell-based, human
Settings: with or without lysosomal enzyme inhibitors
Protocol: For experiments in which proteasomal inhibitors were used, MG132 was used at 30 μM and lactacystin at 10 μM for the last 6 hours of the incubation with CBZ or control. Cells that were incubated with MG132 or lactacystin alone served as control to validate that the proteasome was inhibited. For investigation of LC3 conversion, lysosomal inhibitors (E64D and pepstatin A at 20 μg/ml) were added to the medium for the last 4 hours of the incubation with CBZ or control. […] If the number of separate experiments done in the cell line models is not specifically indicated in the text or figure legend, at least 3 separate experiments were done in each case.
For immunoblot analysis to detect AT, GAPDH or LC3, cells were lysed in 50 mM Tris-HCl, 150 mM NaCl, 1% NP-40, pH 8.0. Protein levels were quantified using the BCA protein assay (Pierce Biotechnology, Rockford, Ill.). 10-50 μg samples were loaded onto 7.5% precast gels. PVDF membranes were blocked in TBS, 0.5% Tween 20 (TBST), 5% milk and then incubated with primary antibody in 5% milk TBST solution. Horseradish peroxidase anti-goat Ig or anti-mouse Ig (Jackson Labs, Bar Harbor, Me.) were used as secondary antibodies in TBST. Blots were visualized with Super Signal West Dura or West Femto from Pierce.

SMILES: NC(=O)N1c2ccccc2C=Cc2ccccc21 [CBZ, 5H-dibenz [b,f]azepine-5-carboxamide]
- LC3-II to LC3-I ratio: increased in a dose-dependent manner
